Patent US20190322643A1 (Georgia State University Research Foundation, Inc., priority 2016, published 2019)
“Also recorded” adds a separate entry of the source.

Legend:
[1] = target: T1, Mouse histone methyltransferase G9a (969-1263) (Mus musculus, UniProt Q9Z148); assay: MALDI-TOF methylation study of G9a inhibition; assay type: biochemical; details: inhibitors at 5 μM concentration for 30 min
T1 construct: The 6His-sumo mG9a (969-1263) protein was purified using the following procedure; 6His-sumo (cleaved yes); made in house; host or cells: Escherichia coli BL21 (DE3)
T1 sequence (Q9Z148 969-1263): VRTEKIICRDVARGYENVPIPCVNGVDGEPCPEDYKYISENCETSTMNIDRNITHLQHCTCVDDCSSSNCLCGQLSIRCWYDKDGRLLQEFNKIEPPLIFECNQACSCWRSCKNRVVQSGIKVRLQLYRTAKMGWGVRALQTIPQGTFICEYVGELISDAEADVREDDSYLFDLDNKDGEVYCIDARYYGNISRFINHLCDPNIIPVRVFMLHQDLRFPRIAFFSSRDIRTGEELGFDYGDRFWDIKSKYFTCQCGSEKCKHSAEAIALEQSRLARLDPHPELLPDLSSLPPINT
Method: Mouse histone methyltransferase G9a (969-1263) cDNA was amplified from the cDNA of BALB/c mouse thymus, and the fragment was sub-cloned into a vector with a 6His-sumo tag. […] The 6His-sumo mG9a (969-1263) protein was purified using the following procedure: harvested cell pellet was re-suspended in 20 mM Tris (pH 8.0), 500 mM NaCl, 0.1% β-mercaptoethanol, and 1 mM PMSF. Cells were lysed by sonicating for 15 seconds with 6 second intervals for a total time of 15 minutes on an ice bath. […] The 6His-sumo tag was cleaved from the column by adding Ubiquitin-like-specific protease 1 (ULP-1) at 4° C. for 12 hours. Wash buffer was then run through the Ni^+ column again and the elution buffer collected. Subsequently, advanced protein purification was done by HiTrap Q HP sequential Superdex 200 10/300 GL. Elute of every step was analyzed by SDS PAGE, stained by Coomassie brilliant blue (CBB). […] The reaction was incubated at room temperature for 30 min, and stopped by TFA. 1 μL of the sample was mixed with CHCA matrix and m/z peaks were obtained at reflection positive mode. The results of mass spectrum were analyzed using the Bruker flex analysis software and data processing was carried out as described below. MALDI-TOF based experiments were performed according to the protocol developed by Chang et al. (Nat. Struct. Mol. Biol. 2009, 16, 312-317). MALDI spectra were collected using Bruker flex control software and analyzed by flex analysis. After labelling each cluster peaks of H3K9Me0, H3K9Me1 and H3K9Me2 for all of the tested concentrations, area under the cluster (AUC) were extracted by using the same flex analysis software. % abundance of each peak was calculated by following formula: A=% Abundance of (H3K9Me0)=area of H3K9Me0/(area of H3K9Me0+area of H3K9Me1+area of H3K9Me2) B=% Abundance of (H3K9Me1)=area of H3K9Me1/(area of H3K9Me0+area of H3K9Me1+area of H3K9Me2) C=% Abundance of (H3K9Me2)=area of H3K9Me2/(area of H3K9Me0+area of H3K9Me1+area of H3K9Me2). This was repeated for each spectra (3 multiples for each samples). […] Finally % inhibition was found by subtracting % MA(i) from 100. […] A biochemical assay using MALDI-TOF was used to visualize the effects of the synthesized compounds on G9a enzymatic activity. […] Struct. Mol. Biol. 2009, 16, 312-317).

G9a = target: T2, G9a (Homo sapiens, UniProt Q96KQ7); assay: H3K9Me2 cell immunofluorescence in-cell Western (ICW) assay; assay type: cell-based; details: MDA-MB-231 cell line, 48 h
T2 construct: endogenous in cells; host or cells: MDA-MB-231
T2 sequence (Q96KQ7 1-1210): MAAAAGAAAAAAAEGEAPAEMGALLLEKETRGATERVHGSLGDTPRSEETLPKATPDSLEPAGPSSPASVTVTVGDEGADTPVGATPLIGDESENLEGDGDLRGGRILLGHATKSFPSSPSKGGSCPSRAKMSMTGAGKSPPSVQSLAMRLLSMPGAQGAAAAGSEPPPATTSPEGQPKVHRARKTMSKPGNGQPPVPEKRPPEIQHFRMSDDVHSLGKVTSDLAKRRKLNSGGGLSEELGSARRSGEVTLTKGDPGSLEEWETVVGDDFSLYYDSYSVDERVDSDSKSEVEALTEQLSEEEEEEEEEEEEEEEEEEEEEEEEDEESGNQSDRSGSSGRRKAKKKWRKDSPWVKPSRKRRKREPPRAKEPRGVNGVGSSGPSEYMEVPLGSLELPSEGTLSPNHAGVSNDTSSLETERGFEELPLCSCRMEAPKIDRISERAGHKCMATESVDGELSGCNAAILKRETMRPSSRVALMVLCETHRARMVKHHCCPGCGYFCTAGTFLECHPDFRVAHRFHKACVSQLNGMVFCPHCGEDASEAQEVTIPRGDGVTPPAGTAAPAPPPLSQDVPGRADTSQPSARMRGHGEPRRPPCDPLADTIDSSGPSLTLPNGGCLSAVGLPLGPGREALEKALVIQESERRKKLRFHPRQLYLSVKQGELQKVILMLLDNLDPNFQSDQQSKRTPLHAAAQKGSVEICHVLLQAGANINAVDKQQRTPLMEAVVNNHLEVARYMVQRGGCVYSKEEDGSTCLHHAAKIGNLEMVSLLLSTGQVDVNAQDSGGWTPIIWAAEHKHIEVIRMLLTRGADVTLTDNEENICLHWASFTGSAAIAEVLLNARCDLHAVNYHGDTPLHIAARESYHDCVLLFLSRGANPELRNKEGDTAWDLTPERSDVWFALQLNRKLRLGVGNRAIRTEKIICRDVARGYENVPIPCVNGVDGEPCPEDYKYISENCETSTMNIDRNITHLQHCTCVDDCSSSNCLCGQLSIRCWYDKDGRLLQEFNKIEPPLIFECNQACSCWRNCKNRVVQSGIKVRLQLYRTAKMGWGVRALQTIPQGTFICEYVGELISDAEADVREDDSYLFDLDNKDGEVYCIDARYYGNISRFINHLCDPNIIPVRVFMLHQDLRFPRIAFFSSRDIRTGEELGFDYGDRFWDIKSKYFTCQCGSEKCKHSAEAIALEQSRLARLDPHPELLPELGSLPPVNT
Method: After the incubation, the media was removed and 100 μl fixation and permeabilization solution (2% formaldehyde in PBS) for fixation was added for 30 min. And then use 200 μl 0.1% Triton X100 in PBS washing solution to wash (allow wash to shake on a plate shaker for 5 minutes). After five washes, cells were blocked for 1 h with 150 μl blocking buffer to each well (1% BSA in PBS) (allow blocking at RT with moderate shaking on a plate shaker). After 1 h, remove the blocking buffer from the blocking step and add primary antibody in blocking buffer to cover the bottom of each well. […] The plates were read on an Odyssey CLX (LiCor) scanner at both 800 nm (H3K9me2 signal) and 700 nm (cell tag 700 stain signal) channels. IC50s were calculated using GraphPad Prizm statistical package with sigmoidal variable slope dose response curve fit.

HCT-8 = assay: Cytotoxicity / anti-proliferation assay (CCK-8), HCT-8; assay type: cell-based; details: Homo sapiens, 72 h, CCK-8 kit
Method: (§1) Then the cells were exposed to the different inhibitors with various concentrations for 72 h. […] EC50s were calculated using GraphPad Prizm statistical package with sigmoidal variable slope dose response curve fit.
(§2) Cell anti-proliferation assays were performed to determine the toxicity of these inhibitors. […] These compounds were further evaluated against the control cell line HEK293 to test their toxicity with a non-cancerous cell line.

HEK293 = assay: Toxicity assay (CCK-8) in control non-cancerous cell line; assay type: cell-based
Method: A549, MDA-MB-231, HCT-8, MCF-7, and HEK293 cells were seeded at 8000-10000 cells (100 μl) in white 96-well plates and pre-incubate the plate for 24 h under standard cell culture conditions, respectively. Then the cells were exposed to the different inhibitors with various concentrations for 72 h. Finally, 10 μl of CCK-8 kit solution was added to each well and incubated for 3-4 hours under standard cell culture conditions, and the 96 well plates were measured the absorbance at 450 nm using Perkin-Elmer Wallac Victor ^3V 1420 multi label plate reader (Perkin-Elmer, Wellesley, USA). EC50s were calculated using GraphPad Prizm statistical package with sigmoidal variable slope dose response curve fit.
as §2, with “inhibitors. Several cell lines (MDA-MB-231, MCF-7, A549 and HCT-8) were incubated and then treated with varying concentrations of the inhibitors for 72 h, respectively.” for “inhibitors.”

HDAC = assay: Homogeneous cellular HDAC assay, statements in text without one cell line; details: result in words
Method: After 24 h, 9 μl inhibitors with different concentration were added to the HeLa cells and incubation was continued for 3 h under cell culture conditions. After this treatment period, 10 μl of a 2 mM stock solution of the substrate Boc-K(Ac)-AMC was added into the 96 well plates with Hela cells and inhibitors. […] A549 and K562 cell lines used the same method, respectively. IC50s were calculated using GraphPad Prizm statistical package with sigmoidal variable slope dose response curve fit.
Boc-K(Ac)-AMC was used as a cell-permeable HDAC substrate, as after deacetylation it is cleaved by trypsin to release the florescent 7-amino-4-methylcoumarin (AMC).

A549 = assay: Cytotoxicity / anti-proliferation assay (CCK-8), A549; assay type: cell-based; details: Homo sapiens, 72 h, CCK-8 kit
Method: as §1, §2

inhibition at 5 µM [1]	IC50 (G9a)	SMILES	EC50 (HCT-8)	toxicity in normal cell line (HEK293)	HDAC inhibition activity (HDAC)	EC50 (A549)
69.5 ± 3.43%	7.14 ± 1.62 µM	COc1ccc2c(NC3CCN(Cc4ccccc4)CC3)nc(NCCNC(=O)CCCCCC(=O)NO)nc2c1 [Compound 14, N1-(2-((4-((1-benzylpiperidin-4-yl)amino)-7-methoxyquinazolin-2-yl)amino)ethyl)-N7-hydroxyheptanediamide]	73.1 ± 1.21 µM	lower toxicity; also recorded: less toxic compared to 13	significant HDAC inhibition	–
38 ± 4.99%	87.4 ± 5.44 µM	COc1cc2nc(NCCNC(=O)CCCCCC(=O)NO)nc(NC3CCN(Cc4ccccc4)CC3)c2cc1OC [Compound 5b, N1-(2-((4-((1-benzylpiperidin-4-yl)amino)-6,7-dimethoxyquinazolin-2-yl)amino)ethyl)-N7-hydroxyheptanediamide]	> 100 µM	–	much lower than that of 14	> 100 µM
62 ± 14.4%	37.8 ± 2.8 µM	COc1ccc2c(NC3CCN(Cc4ccccc4)CC3)nc(NCCNC(=O)CCCCCCC(=O)NO)nc2c1 [Compound 13, N1-(2-((4-((1-benzylpiperidin-4-yl)amino)-7-methoxyquinazolin-2-yl)amino)ethyl)-N8-hydroxyoctanediamide]	> 100 µM	lower toxicity	significant HDAC inhibition	–
